# From patent US9771372B2, “Compounds useful as S100-inhibitors” (Active Biotech AB, priority 2014, dated 2017)
# Molecular target: T1, interaction between biotinylated human S100A9 and human RAGE-Fc (Homo sapiens, UniProt P06702)
# T1 construct: made in house; host or cells: E. coli BL21(DE3)/pET1120 (pLR757)
# T1 sequence (P06702 1-114): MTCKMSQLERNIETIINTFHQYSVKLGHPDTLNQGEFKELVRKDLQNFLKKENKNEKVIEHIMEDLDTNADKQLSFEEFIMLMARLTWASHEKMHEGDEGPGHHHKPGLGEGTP
# Assay: AlphaScreen inhibition assay, Biot-hS100A9:hRAGE-Fc (S100A9-RAGE inhibition assay)
# Assay type: binding
# Details: biot-hS100A9 and rhRAGE-Fc, Ca2+ and Zn2+ in buffer
# Excerpt: FIG. 1 is a schematic representation of an assay of the inhibition of the interaction between biotinylated human S100A9 and human RAGE-Fc using a small molecule S100A9 binder.
# Inhibition Assay, Biot-hS100A9:hRAGE-Fc
# The AlphaScreen (Amplified Luminescent Proximity Homogeneous Assay) contains two types of beads, Alpha Donor beads and Acceptor beads (PerkinElmer). Upon laser excitation at 680 nm a photosensitizer in the Donor bead converts ambient oxygen to a more excited singlet state. The singlet oxygen molecule diffuses (maximum 200 nm) to react with a thioxene derivative in the Acceptor bead and generates a chemiluminescence reaction. Fluorophores in the Acceptor bead subsequently emit light at 520-620 nm which can be detected in the EnVision® Multilabel plate Reader (PerkinElmer). The beads are light sensitive and all work with the beads is performed under subdued light conditions or using green filters on light sources (Roscolux Chroma Green #389, Rosco).
# In the AlphaScreen Inhibition Assay described here, protein A (Staphylococcus aureus) conjugated Acceptor beads are used together with streptavidin coated Donor beads (Perkin Elmer 6760617M). The Acceptor beads are pre-incubated with Fc-tagged recombinant human RAGE (rhRAGE-Fc) allowing binding of the rhRAGE-Fc to protein A on the beads. Biotinylated human S100A9 (biot-hS100A9) is pre-incubated with the low molecular test compounds. The pre-mixes are then added to the wells of a micro-plate and incubated allowing interaction between biot-hS100A9 and rhRAGE-Fc. Subsequent addition of streptavidin coated Donor beads causes binding of the streptavidin to the biotinylated hS100A9. After an additional incubation the signal is measured.
# Without inhibitory compounds, the interaction of biot-hS100A9 to rhRAGE-Fc will bring the Acceptor and Donor beads in close proximity thus generating a high signal. With an inhibitor present the complex will not form resulting in a decreased signal.
# The AlphaScreen assay method is used for screening of the inhibitory effect of different compound samples at fixed concentrations or for IC50 determination by varying the compound concentrations. Samples of test compounds and references are prepared from solutions in DMSO. Relevant reference inhibitors and DMSO are used as controls for defined inhibition and non-inhibition, respectively in the assay. The percent inhibition in assay for test compounds and references are calculated by comparing their obtained assay signals with the signal values for the control with only DMSO (no compound).
# Assay concentration of biotinylated hS100A9 and rhRAGE-Fc are batch dependent, and are determined and defined by separate cross-titration experiments using this AlphaScreen inhibition method to verify the optimal setup regarding signal strength and achievement of a defined inhibition with relevant reference compounds. The Final assay concentrations of Acceptor and Donor beads are 20 μg/mL.
# Assay buffer is prepared by adding CaCl2 and ZnCl2 to HBS-P and is used freshly prepared in the experiment.
# Biotin-hS100A9 solution for the experiment is prepared by dilution of appropriate amount of stock solution biot-hS100A9 in assay buffer (with CaCl2 and ZnCl2) and incubation in room temperature for 30 minutes.
# rhRAGE-Fc solution for the experiment is prepared by dilution appropriate amount of rhRAGE-Fc stock in assay buffer.
# Protein A Acceptor beads are diluted in assay buffer and are added to an equal volume of the prepared diluted rhRAGE-Fc solution. The beads are light sensitive. The vial is covered with aluminum foil and incubated at room temperature in the dark until biot-hS100A9+compound incubation is finished (see below).
# Streptavidin-coated Donor beads are diluted in assay buffer. The beads are very light sensitive. The vial is covered with aluminum foil and incubated at room temperature in the dark until use (see below).
# Samples of test compounds, appropriate references and DMSO control are diluted in assay buffer. […]
row,IC50 [nM],SMILES
1,1810,"CC(C)CNc1nc(C(=O)NC2(C(F)(F)F)C(=O)Nc3nc4cc(Cl)c(Cl)cc4n32)cs1 (stereo not drawn) [Example 237, N-[10,11-dichloro-4-oxo-3-(trifluoromethyl)-2,5,7-triazatricyclo[6.4.0.0^2,6]dodeca-1(12),6,8,10-tetraen-3-yl]-2-[(2-methylpropyl)amino]-1,3-thiazole-4-carboxamide]"
2,940,"COc1ccc(-c2cccc3c2nc2n3C(NC(=O)CCC3CCCC3)(C(F)(F)F)C(=O)N2)cn1 (stereo not drawn) [Example 188, 3-cyclopentyl-N-[9-(6-methoxypyridin-3-yl)-4-oxo-3-(trifluoromethyl)-2,5,7-triazatricyclo[6.4.0.0^2,6]dodeca-1(12),6,8,10-tetraen-3-yl]propanamide]"
3,1200,"O=C(NC1(C(F)(F)F)C(=O)Nc2nc3cc(Cl)c(Cl)cc3n21)[C@@H]1CCN(S(=O)(=O)C2CCCC2)C1 (stereo partly drawn) [Example 51, (3R)-1-(cyclopentanesulfonyl)-N-[10,11-dichloro-4-oxo-3-(trifluoromethyl)-2,5,7-triaza-tricyclo[6.4.0.0^2,6]dodeca-1(12),6,8,10-tetraen-3-yl]pyrrolidine-3-carboxamide]"
4,950,"COc1cccc(-c2cccc3c2nc2n3C(NC(=O)CCC3CCCC3)(C(F)(F)F)C(=O)N2)c1 (stereo not drawn) [Example 189, 3-cyclopentyl-N-[9-(3-methoxyphenyl)-4-oxo-3-(trifluoromethyl)-2,5,7-triazatricyclo[6.4.0.0^2,6]dodeca-1(12),6,8,10-tetraen-3-yl]propanamide]"
5,1120,"CC(=O)c1cc(Cl)cc2c1nc1n2C(NC(=O)CCC2CCCC2)(C(F)(F)F)C(=O)N1 (stereo not drawn) [Example 182, N-[9-acetyl-11-chloro-4-oxo-3-(trifluoromethyl)-2,5,7-triazatricyclo[6.4.0.0^2,6]dodeca-1(12),6,8,10-tetraen-3-yl]-3-cyclopentylpropanamide]"
6,400,"Cc1cc2nc3n(c2cc1C)C(NC(=O)CCCC1CCCC1)(C(F)(F)F)C(=O)N3 (stereo not drawn) [Example 19, 4-cyclopentyl-N-[10,11-dimethyl-4-oxo-3-(trifluoromethyl)-2,5,7-triazatricyclo-[6.4.0.0^2,6]dodeca-1(8),6,9,11-tetraen-3-yl]butanamide]"
7,3120,"Cc1cc2nc3n(c2cc1C)C(NC(=O)[C@@H](C)CC1CCCC1)(C(F)(F)F)C(=O)N3 (mixture of isomers) [Example 145, (2S)-3-cyclopentyl-N-[10,11-dimethyl-4-oxo-3-(trifluoromethyl)-2,5,7-triazatricyclo[6.4.0.0^2,6]dodeca-1(8),6,9,11-tetraen-3-yl]-2-methylpropanamide]"
8,3300,"O=C(NC1(C(F)(F)F)C(=O)Nc2nc3cc(Cl)c(Cl)cc3n21)C1CC2(CNC2)C1 (stereo not drawn) [Example 40, N-[10,11-dichloro-4-oxo-3-(trifluoromethyl)-2,5,7-triazatricyclo[6.4.0.0^2,6]dodeca-1(12),6,8,10-tetraen-3-yl]-2-azaspiro[3.3]heptane-6-carboxamide]"
9,200,"COCCNc1cccc(C(=O)NC2(C(F)(F)F)C(=O)Nc3nc4cc(Cl)c(Cl)cc4n32)n1 (stereo not drawn) [Example 71, N-[10,11-dichloro-4-oxo-3-(trifluoromethyl)-2,5,7-triazatricyclo[6.4.0.0^2,6]dodeca-1(12),6,8,10-tetraen-3-yl]-6-[(2-methoxyethyl)amino]pyridine-2-carboxamide]"
10,10200,"O=C(CCC1CCCC1)NC1(C(F)(F)F)C(=O)Nc2nc3ccccc3n21 (stereo not drawn) [Example 9, 3-cyclopentyl-N-[4-oxo-3-(trifluoromethyl)-2,5,7-triazatricyclo[6.4.0.0^2,6]dodeca-1(8),6,9,11-tetraen-3-yl]propanamide]"
11,2000,"Cc1cc2nc3n(c2cc1C)C(NC(=O)c1ccc(-c2ccccc2)cc1)(C(F)(F)F)C(=O)N3 (stereo not drawn) [Example 18, N-[10,11-dimethyl-4-oxo-3-(trifluoromethyl)-2,5,7-triazatricyclo[6.4.0.0^2,6]dodeca-1(8),6,9,11-tetraen-3-yl]-4-phenylbenzamide]"
12,3900,"O=C(NC1(C(F)(F)F)C(=O)Nc2nc3cc(Cl)c(Cl)cc3n21)C1CNC1 (stereo not drawn) [Example 47, N-[10,11-dichloro-4-oxo-3-(trifluoromethyl)-2,5,7-triazatricyclo[6.4.0.0^2,6]dodeca-1(12),6,8,10-tetraen-3-yl]azetidine-3-carboxamide]"
13,4300,"Cc1cc2c(nc3n2C(NC(=O)c2ccccc2)(C(F)(F)F)C(=O)N3)c(Br)c1C (stereo not drawn) [Example 77, N-[9-bromo-10,11-dimethyl-4-oxo-3-(trifluoromethyl)-2,5,7-triazatricyclo[6.4.0.0^2,6]dodeca-1(8),6,9,11-tetraen-3-yl]benzamide]"
14,1300,"Cc1cc2nc3n(c2cc1C)C(NC(=O)CCc1ccccc1Cl)(C(F)(F)F)C(=O)N3 (stereo not drawn) [Example 16, 3-(2-chlorophenyl)-N-[10,11-dimethyl-4-oxo-3-(trifluoromethyl)-2,5,7-triazatricyclo-[6.4.0.0^2,6]dodeca-1(8),6,9,11-tetraen-3-yl]propanamide]"
15,1200,"O=C(CCC1CCCC1)NC1(C(F)(F)F)C(=O)Nc2nc3cc4c(cc3n21)CCC4 (stereo not drawn) [Example 78, 3-cyclopentyl-N-[12-oxo-11-(trifluoromethyl)-10,13,15-triazatetracyclo[7.6.0.0^3,7.0^10,14]-pentadeca-1(9),2,7,14-tetraen-11-yl]propanamide]"
16,400,"Cc1cc2nc3n(c2cc1C)C(NC(=O)CCC1CCCC1)(C(F)(F)F)C(=O)N3 (stereo not drawn) [Example 27, 3-cyclopentyl-N-[10,11-dimethyl-4-oxo-3-(trifluoromethyl)-2,5,7-triazatricyclo[6.4.0.0^2,6]-dodeca-1(12),6,8,10-tetraen-3-yl]propanamide]"
17,730,"Cc1cc2nc3n(c2cc1C)C(NC(=O)CCC1CCCC1)(C(F)(F)F)C(=O)N3 (single isomer, unassigned) [Example 218b, 3-cyclopentyl-N-[10,11-dimethyl-4-oxo-3-(trifluoromethyl)-2,5,7-triazatricyclo[6.4.0.0^2,6]dodeca-1(12),6,8,10-tetraen-3-yl]propanamide]"
18,10100,"CC(=O)c1cccc2c1nc1n2C(NC(=O)CCC2CCCC2)(C(F)(F)F)C(=O)N1 (single isomer, unassigned) [Example 224b, N-[9-acetyl-4-oxo-3-(trifluoromethyl)-2,5,7-triazatricyclo[6.4.0.0^2,6]dodeca-1(12),6,8,10-tetraen-3-yl]-3-cyclopentylpropanamide]"
19,500,"O=C(CCC1CCCC1)NC1(C(F)(F)F)C(=O)Nc2nc3cc(Cl)c(Cl)cc3n21 (stereo not drawn) [Example 39, 3-cyclopentyl-N-[10,11-dichloro-4-oxo-3-(trifluoromethyl)-2,5,7-triazatricyclo[6.4.0.0^2,6]-dodeca-1(12),6,8,10-tetraen-3-yl]propanamide]"
20,1600,"O=C(NC1(C(F)(F)F)C(=O)Nc2nc3cc(Cl)c(Cl)cc3n21)C1CCCC1 (stereo not drawn) [Example 54, N-[10,11-dichloro-4-oxo-3-(trifluoromethyl)-2,5,7-triazatricyclo[6.4.0.0^2,6]dodeca-1(12),6,8,10-tetraen-3-yl]cyclopentanecarboxamide]"
21,600,"O=C(CCC1CCCC1)NC1(C(F)(F)F)C(=O)Nc2nc3c(Cl)c(Cl)ccc3n21 (stereo not drawn) [Example 83, 3-cyclopentyl-N-[9,10-dichloro-4-oxo-3-(trifluoromethyl)-2,5,7-triazatricyclo[6.4.0.0^2,6]-dodeca-1(12),6,8,10-tetraen-3-yl]propanamide]"
